Reference: patent US8889727B2, “Topical antifungal agent” (Meiji Seika Pharma Co., Ltd., priority 2011, dated 2014)
Converted amounts (≈) assume the structure as drawn. Counter-ions that a name gives are not always drawn.

Experiments:
[1] = tested on: T. mentagrophytes ATCC18748; assay: Measurement of antifungal activity (MIC, WST8 growth inhibition); assay type: cell-based; settings: Trichophyton mentagrophytes, 72 h; 80% growth inhibition concentration; T. mentagrophytes ATCC18748, RPMI1640/MOPS, 28° C., 3 days
Experimental: (§1) The compounds for evaluation were dissolved in dimethyl sulfoxide (DMSO) and used. As the test medium, RPMI1640 medium containing 0.165 M 3-morpholino propane sulfonic acid (MOPS) was used. As the test strain, T. mentagrophytes ATCC18748 or T. rubrum ATCC10218 was used. 100 μL of the test strain each at a concentration of 1×10^4 conidia/mL was dispensed, mixed with compounds for evaluation on 96 well half area plate so that the concentration of DMSO becomes 1%, and cultured at 28° C. for 3 days (for T. mentagrophytes) or for 4 days (for T. rubrum). Then, 5 μL of Cell Counting Kit8 (WST8) was added and the absorbances at 450 nm and 595 nm was measured as background. Subsequently, they were incubated at 28° C. for 5 hours (for T. mentagrophytes) or overnight (for T. rubrum) to color, and again the absorbances at 450 nm and 595 nm was measured, and then calculated the growth inhibition percentages using the differences from the background, and 80% growth inhibition concentration was regarded as MIC (μg/ml). Measurement of antifungal activity was conducted by the following method. Compounds for evaluation were dissolved in dimethyl sulfoxide (DMSO) and used. As the test medium, RPMI1640 medium containing 0.165 M 3-morpholinopropane sulfonic acid (MOPS) was used. As the test strain, T. mentagrophytes ATCC18748 or T. rubrum ATCC10218 was used. 100 μL of the test strain was dispensed at a concentration of 1×10^4 conidia/mL, mixed with compounds for evaluation on 96 well half area plate so that the concentration of DMSO becomes 1%, and cultured at a culture temperature of 28° C. for 3 days (for T. mentagrophytes) or for 4 days (for T. rubrum). Then, 5 μL of Cell Counting Kit8 (WST8) was added and the absorbances at 450 nm and 595 nm was measured as background. Subsequently, they were incubated at 28° C. for 5 hours (for T. mentagrophytes) or overnight (for T. rubrum), and again measured the absorbances at 450 nm and 595 nm was measured, and then calculated the growth inhibition percentages using the differences from the background, and 80% growth inhibition concentration was regarded as MIC (μg/ml).

[2] = tested on: T. rubrum ATCC10218; assay: as above; assay type: cell-based; settings: Trichophyton rubrum, 96 h; 80% growth inhibition concentration; T. rubrum ATCC10218, RPMI1640/MOPS, 28° C., 4 days
Experimental: as §1

[3] = Nail permeability test (bovine hoof slice on agarose); assay type: in vitro ADME; settings: 2 μL of 10 mg/mL solution on bovine hoof slice (about 100 μm), 28° C., 5 days
Experimental: Compounds for evaluation were each dissolved in a solution of ethyl acetate:propylene glycol (1:1) or dimethyl sulfoxide at a concentration of 10 mg/mL. 2 μL each of the solutions was added to a bovine hoof slice placed on a low-melting-point agarose. After incubation at 28° C. for 5 days, the agaroses were collected, distilled water was added thereto, and the mixtures were heated and dissolved. The concentrations of the compound in the solutions were determined using a high performance liquid chromatography/mass spectrometry apparatus to obtain the amounts of the agents permeated through the hoof and to calculate the permeabilities of the respective agents. Since the permeability of bovine hoof and human nail correlates as described in J. Pharma. Pharmacol., vol. 49, pp. 866-872, 1997, the nail permeability test was conducted using a bovine hoof in the present invention. Example compounds and comparative compounds (amorolfine hydrochloride, terbinafine hydrochloride and ciclopirox) were each dissolved in a solution of ethyl acetate:propylene glycol (1:1) or dimethyl sulfoxide at a concentration of 10 mg/mL. […] The concentrations of the compounds in the solutions were determined using a high performance liquid chromatography/mass spectrometry apparatus to obtain the amounts of the agents permeated through the nail and calculate the permeabilities of the respective agents.

MIC [1] [µg/mL]	MIC [2] [µg/mL]	Nail permeability [3]	SMILES
≤ 1	≤ 2	E (<0.1%)	CN(C/C=C/C#CC(C)(C)C)Cc1cccc2ccccc12 [Terbinafine hydrochloride, reference compound]
≤ 1	≤ 2	E (<0.1%)	CCC(C)(C)c1ccc(CC(C)CN2C[C@@H](C)O[C@@H](C)C2)cc1 (some centres unmarked) [Amorolfine hydrochloride, reference compound]
16 to 32 (≈ 61.5 to 123 µM)	32 to 64 (≈ 123 to 246 µM)		CCOC(=O)c1c(C)nn(-c2ccccc2O)c1C [Example 22, Ethyl 1-(2-hydroxyphenyl)-3,5-dimethyl-1H-pyrazol-4-carboxylate]
16 to 32 (≈ 67 to 134 µM)	16 to 32 (≈ 67 to 134 µM)		Cc1nn(-c2cc(O)ccc2O)c(C)c1Cl [Example 19, 2-(4-Chloro-3,5-dimethyl-1H-pyrazol-1-yl)benzene-1,4-diol]
16 to 32 (≈ 65 to 130 µM)	16 to 32 (≈ 65 to 130 µM)		COC(=O)c1ccc(-n2nc(C)cc2C)c(O)c1 [Example 35, Methyl 4-(3,5-dimethyl-1H-pyrazol-1-yl)-3-hydroxybenzene carboxylate]
2 to 8	4 to 16		CC(=O)Oc1ccc(-n2nc(C)cc2C)c(O)c1 [Example 57, 4-(3,5-dimethyl-1H-pyrazol-1-yl)-3-hydroxyphenyl acetate]
16 to 32 (≈ 61.7 to 123 µM)	4 to 16 (≈ 15.4 to 61.7 µM)		Cc1cc(C)n(-c2ccc(C(=O)N(C)C)cc2O)n1 [Example 38, 4-(3,5-Dimethyl-1H-pyrazol-1-yl)-3-hydroxy-N,N-dimethylbenzamide]
16 to 32 (≈ 72.6 to 145 µM)	32 to 64 (≈ 145 to 291 µM)		Cc1nn(-c2cc(F)ccc2O)c(C)c1C [Example 20, 4-Fluoro-2-(3,4,5-trimethyl-1H-pyrazol-1-yl)phenol]
2 to 8 (≈ 9.79 to 39.2 µM)	≤ 2		Cc1cc(C)n(-c2ccc(O)cc2O)n1 [Example 33, 4-(3,5-Dimethyl-1H-pyrazol-1-yl)benzene-1,3-diol]
≤ 1	4 to 16 (≈ 18 to 71.9 µM)		Cc1nn(-c2ccccc2O)c(C)c1Cl [Example 13, 2-(4-Chloro-3,5-dimethyl-1H-pyrazol-1-yl)phenol]
≤ 1	≤ 2		COc1ccc(-n2nc(C)cc2C)c(O)c1 [Example 45, 2-(3,5-Dimethyl-1H-pyrazol-1-yl)-5-methoxyphenol]
16 to 32 (≈ 78.3 to 157 µM)	16 to 32 (≈ 78.3 to 157 µM)		Cc1cc(C)n(-c2cccc(O)c2O)n1 [Example 15, 3-(3,5-Dimethyl-1H-pyrazol-1-yl)benzene-1,2-diol]
